Measured values as given in ChEMBL document CHEMBL4007388, “Synthesis and antiproliferative activity of monocationic arylthiophene derivatives” (Eur J Med Chem, 2017).
pIC50: −log10 of the molar value.

What was measured:
HOP-62 = test: Growth inhibition of human HOP62 cells incubated for 48 hrs by sulforhodamine B assay; type: functional; conditions: HOP-62, 48 h
Homo sapiens = organism: Homo sapiens; test: Inhibition of PTK in human MCF7 cells at 1 uM preincubated for 2 hrs followed by poly-Glu-Tyr substrate addition by ELISA relative to control; type: cell-based
BT-549 = test: Growth inhibition of human BT549 cells incubated for 48 hrs by sulforhodamine B assay; type: functional; conditions: BT-549, 48 h
786-0 = test: Growth inhibition of human 786-O cells incubated for 48 hrs by sulforhodamine B assay; type: functional; conditions: 786-0, 48 h
SN12C = test: Growth inhibition of human SN12C cells incubated for 48 hrs by sulforhodamine B assay; type: functional
PC-3 = test: Growth inhibition of human PC3 cells incubated for 48 hrs by sulforhodamine B assay; type: functional; conditions: PC-3, 48 h
UACC-257 = test: Growth inhibition of human UACC257 cells incubated for 48 hrs by sulforhodamine B assay; type: functional; conditions: UACC-257, 48 h
WISH = test: Cytotoxicity against human WISH cells assessed as reduction in cell viability after 24 hrs by MTT assay; type: cell-based
KM12 = test: Growth inhibition of human KM12 cells incubated for 48 hrs by sulforhodamine B assay; type: functional; conditions: KM12, 48 h
MOLT-4 = test: Growth inhibition of human MOLT4 cells incubated for 48 hrs by sulforhodamine B assay; type: functional; conditions: MOLT-4, 48 h
MCF7 = test: Growth inhibition of human MCF7 cells incubated for 48 hrs by sulforhodamine B assay; type: functional; conditions: MCF7, 48 h
RXF 393 = test: Growth inhibition of human RXF393 cells incubated for 48 hrs by sulforhodamine B assay; type: functional; conditions: RXF 393, 48 h
SNB-75 = test: Growth inhibition of human SNB75 cells incubated for 48 hrs by sulforhodamine B assay; type: functional; conditions: SNB-75, 48 h
NCI/ADR-RES = test: Growth inhibition of human NCI/ADR-RES cells incubated for 48 hrs by sulforhodamine B assay; type: functional
HCC 2998 = test: Growth inhibition of human HCC2998 cells incubated for 48 hrs by sulforhodamine B assay; type: functional; conditions: HCC 2998, 48 h
HL-60(TB) = test: Growth inhibition of human HL-60(TB) cells incubated for 48 hrs by sulforhodamine B assay; type: functional; conditions: HL-60, 48 h
CAKI-1 = test: Growth inhibition of human Caki1 cells incubated for 48 hrs by sulforhodamine B assay; type: functional; conditions: CAKI-1, 48 h
SNB-19 = test: Growth inhibition of human SNB19 cells incubated for 48 hrs by sulforhodamine B assay; type: functional; conditions: SNB-19, 48 h
[1] = Antioxidant activity assessed as superoxide dismutase-like activity by measuring inhibition of superoxide radical anion production at 2 uM by NBT reduction assay relative to control; type: functional
LOX IMVI = test: Growth inhibition of human LOXIMVI cells incubated for 48 hrs by sulforhodamine B assay; type: functional
RPMI-8226 = test: Growth inhibition of human RPMI8226 cells incubated for 48 hrs by sulforhodamine B assay; type: functional; conditions: RPMI-8226, 48 h
MDA-MB-435 = test: Growth inhibition of human MDA-MB-435 cells incubated for 48 hrs by sulforhodamine B assay; type: functional; conditions: MDA-MB-435, 48 h
SK-OV-3 = test: Growth inhibition of human SKOV3 cells incubated for 48 hrs by sulforhodamine B assay; type: functional; conditions: SK-OV-3, 48 h
HOP-92 = test: Growth inhibition of human HOP92 cells incubated for 48 hrs by sulforhodamine B assay; type: functional; conditions: HOP-92, 48 h
IGROV-1 = test: Growth inhibition of human IGROV1 cells incubated for 48 hrs by sulforhodamine B assay; type: functional; conditions: IGROV-1, 48 h
DU-145 = test: Growth inhibition of human DU145 cells incubated for 48 hrs by sulforhodamine B assay; type: functional; conditions: DU-145, 48 h
NCI-H522 = test: Growth inhibition of human NCI-H522 cells incubated for 48 hrs by sulforhodamine B assay; type: functional; conditions: NCI-H522, 48 h
K562 = test: Growth inhibition of human K562 cells incubated for 48 hrs by sulforhodamine B assay; type: functional; conditions: K562, 48 h
M14 = test: Growth inhibition of human M14 cells incubated for 48 hrs by sulforhodamine B assay; type: functional; conditions: M14, 48 h
A498 = test: Growth inhibition of human A498 cells incubated for 48 hrs by sulforhodamine B assay; type: functional; conditions: A498, 48 h
SW-620 = test: Growth inhibition of human SW620 cells incubated for 48 hrs by sulforhodamine B assay; type: functional; conditions: SW-620, 48 h
NCI-H322M = test: Growth inhibition of human NCI-H322M cells incubated for 48 hrs by sulforhodamine B assay; type: functional
OVCAR-8 = test: Growth inhibition of human OVCAR8 cells incubated for 48 hrs by sulforhodamine B assay; type: functional; conditions: OVCAR-8, 48 h
ACHN = test: Growth inhibition of human ACHN cells incubated for 48 hrs by sulforhodamine B assay; type: functional
NCI-H226 = test: Growth inhibition of human NCI-H226 cells incubated for 48 hrs by sulforhodamine B assay; type: functional; conditions: NCI-H226, 48 h
HCT-116 = test: Growth inhibition of human HCT116 cells incubated for 48 hrs by sulforhodamine B assay; type: functional; conditions: HCT-116, 48 h
HT-29 = test: Growth inhibition of human HT-29 cells incubated for 48 hrs by sulforhodamine B assay; type: functional; conditions: HT-29, 48 h
MDA-MB-468 = test: Growth inhibition of human MDA-MB-468 cells incubated for 48 hrs by sulforhodamine B assay; type: functional; conditions: MDA-MB-468, 48 h
TK-10 = test: Growth inhibition of human TK10 cells incubated for 48 hrs by sulforhodamine B assay; type: functional; conditions: TK-10, 48 h
WI-38 = test: Cytotoxicity against human WI38 cells assessed as reduction in cell viability after 24 hrs by MTT assay; type: cell-based; conditions: WI-38, 24 h
CCRF-CEM = test: Growth inhibition of human CCRF-CEM cells incubated for 48 hrs by sulforhodamine B assay; type: functional
[2] = Growth inhibition of human NCI60 cells at 10 uM after 48 hrs by SRB assay relative to control; values are per cent of control; conditions: NCI60, 48 h
HCT-15 = test: Growth inhibition of human HCT15 cells incubated for 48 hrs by sulforhodamine B assay; type: functional; conditions: HCT-15, 48 h
SK-MEL-2 = test: Growth inhibition of human SK-MEL-2 cells incubated for 48 hrs by sulforhodamine B assay; type: functional; conditions: SK-MEL-2, 48 h
SR = test: Growth inhibition of human SR cells incubated for 48 hrs by sulforhodamine B assay; type: functional
COLO 205 = test: Growth inhibition of human COLO205 cells incubated for 48 hrs by sulforhodamine B assay; type: functional; conditions: COLO 205, 48 h
NCI-H23 = test: Growth inhibition of human NCI-H23 cells incubated for 48 hrs by sulforhodamine B assay; type: functional; conditions: NCI-H23, 48 h

SMILES: N=C(N)c1ccc(-c2ccc(-c3ccc(F)cc3)s2)cc1
- GI50 (HOP-62): 1.58 µM
- inhibition (Homo sapiens): 19 to 36%
- GI50 (BT-549): 1.65 µM
- GI50 (786-0): 1.47 µM
- GI50 (SN12C): 1.59 µM
- GI50 (PC-3): 1.59 µM
- GI50 (UACC-257): 2.58 µM
- pIC50 (WISH): 3.63
- GI50 (KM12): 1.34 µM
- GI50 (MOLT-4): 1.58 µM
- GI50 (MCF7): 0.323 µM
- GI50 (RXF 393): 1.48 µM
- GI50 (SNB-75): 1.65 µM
- GI50 (NCI/ADR-RES): 1.77 µM
- GI50 (HCC 2998): 0.492 µM
- GI50 (HL-60(TB)): 0.679 µM
- GI50 (CAKI-1): 1.67 µM
- GI50 (SNB-19): 1.93 µM
- inhibition [1]: 59.6%
- GI50 (LOX IMVI): 0.164 µM
- GI50 (RPMI-8226): 0.799 µM
- GI50 (MDA-MB-435): 1.66 µM
- GI50 (SK-OV-3): 1.61 µM
- GI50 (HOP-92): 1.54 µM
- GI50 (IGROV-1): 1.79 µM
- GI50 (DU-145): 1.63 µM
- GI50 (NCI-H522): 1.87 µM
- GI50 (K562): 0.268 µM
- GI50 (M14): 1.6 µM
- GI50 (A498): 1.42 µM
- GI50 (SW-620): 0.386 µM
- GI50 (NCI-H322M): 1.33 µM
- GI50 (OVCAR-8): 2.11 µM
- GI50 (ACHN): 1.56 µM
- GI50 (NCI-H226): 2.19 µM
- GI50 (HCT-116): 1.58 µM
- GI50 (HT-29): 0.323 µM
- GI50 (MDA-MB-468): 1.26 µM
- GI50 (TK-10): 1.85 µM
- pIC50 (WI-38): 3.71
- GI50 (CCRF-CEM): 1.82 µM
- growth percent at 10 µM [2]: -78.7%
- GI50 (HCT-15): 0.252 µM
- GI50 (SK-MEL-2): 2.05 µM
- GI50 (SR): 0.307 µM
- GI50 (COLO 205): 0.204 µM
- GI50 (NCI-H23): 1.58 µM

SMILES: COc1ccc(-c2ccc(-c3ccc(C(=N)N)c(F)c3)s2)cc1
- GI50 (HOP-62): 10.4 µM
- inhibition (Homo sapiens): 66%
- GI50 (BT-549): 5.9 µM
- GI50 (786-0): 3.93 µM
- GI50 (SN12C): 5.97 µM
- GI50 (PC-3): 4.05 µM
- GI50 (UACC-257): 1.84 µM
- pIC50 (WISH): 3.95
- GI50 (KM12): 3.16 µM
- GI50 (MOLT-4): 3.26 µM
- GI50 (MCF7): 2.08 µM
- GI50 (RXF 393): 4.68 µM
- GI50 (SNB-75): 10.7 µM
- GI50 (NCI/ADR-RES): 10.1 µM
- GI50 (HCC 2998): 1.85 µM
- GI50 (HL-60(TB)): 2.19 µM
- GI50 (CAKI-1): 3.94 µM
- GI50 (SNB-19): 9.44 µM
- inhibition [1]: 55%
- GI50 (LOX IMVI): 2.23 µM
- GI50 (RPMI-8226): 2.51 µM
- GI50 (MDA-MB-435): 1.83 µM
- GI50 (SK-OV-3): 9.21 µM
- GI50 (HOP-92): 1.38 µM
- GI50 (IGROV-1): 4.38 µM
- GI50 (DU-145): 6.25 µM
- GI50 (NCI-H522): 3.73 µM
- GI50 (K562): 2.66 µM
- GI50 (M14): 1.9 µM
- GI50 (A498): 6.58 µM
- GI50 (SW-620): 1.92 µM
- GI50 (NCI-H322M): 3.58 µM
- GI50 (OVCAR-8): 8.22 µM
- GI50 (ACHN): 4.24 µM
- GI50 (NCI-H226): 14.4 µM
- GI50 (HCT-116): 3.04 µM
- GI50 (HT-29): 2.79 µM
- GI50 (MDA-MB-468): 1.39 µM
- GI50 (TK-10): 4.33 µM
- pIC50 (WI-38): 3.98
- GI50 (CCRF-CEM): 3.11 µM
- growth percent at 10 µM [2]: -80.5%
- GI50 (HCT-15): 2.58 µM
- GI50 (SK-MEL-2): 2.41 µM
- GI50 (SR): 3.17 µM
- GI50 (COLO 205): 1.78 µM
- GI50 (NCI-H23): 11 µM
